Legend:
[1] = test system: SD-strain rats; test: Acute toxicity test, single intravenous administration; type: in vivo; settings: once administered intravenously, SD-strain rats 6 weeks age
Procedure: In an acute toxicity test where (±)-5-hydroxy-1-methylhydantoin was once administered intravenously to SD-strain rats (6 weeks age), there was no dead case even when the dose was 2,000 mg/kg, and so the lethal dose of the unchanged compound was presumed to be not less than 2,000 mg/kg. In the same toxicity test however, a lethal dose of the metabolite 1 was about 150 to 300 mg/kg. […] Furthermore, it was observed that the racemate caused the decrease of general symptoms such as passivity, tactile reaction, pain sensation reaction and ipsilateral flexor reaction at a dose of 200 mg/kg.

[2] = test system: mice; test: Minimum doses for expression of general symptoms after single oral administration; type: in vivo
[3] = test system: rat in which renal insufficiency was induced by adenine; test: Suppression of creatinine increase in adenine-induced renal insufficiency model rats; type: in vivo, Wistar-strain male rats
Source text: Adenine was orally administered to Wistar-strain male rats of eight weeks age to prepare a renal insufficiency model. […] Further, a value of creatinine clearance (mL/kg/hr) decreased from 315.3±13.8 to 25.7±4.4 whereupon renal functions lowered to about one-tenth.
From the 7th to the 17th days from administration of adenine, the test drug was orally administered to the rat in which renal insufficiency was induced by adenine. The creatinine levels in blood before and after the administration of the test drug were compared whereupon a suppressive action of the test drug to an increase of creatinine accompanied by the progress of renal insufficiency was checked. In a control group where no test drug was administered, an increase of creatinine to an extent of 4.37±0.76 mg/dL was noted while, in a group to which (S)-(−)-5-hydroxy-1-methylhydantoin (200 mg/kg/day) was administered, an increase of creatinine was suppressed to an extent of 2.72±0.55 mg/dL.

[4] = Pharmacokinetics in blood (unchanged compound and metabolites in plasma) in renal insufficiency model rats; type: in vivo; settings: 100 mg/kg oral once, 23rd day from administration of adenine; compared with R-form and racemate; FIG. 1 and FIG. 2
Procedure: After each 100 mg/kg of (S)-(−)-5-hydroxy-1-methylhydantoin, (R)-(+)-5-hydroxy-1-methylhydantoin, and racemate thereof was orally administered once to the above-mentioned model rats of renal insufficiency (on the 23rd day from administration of adenine), changes in concentration of an unchanged compound and metabolites (metabolite 1: 1-methylimidazolidintrion and metabolite 2: 5-methyloxaluric acid) in plasma were checked.

In the case of `CN1C(=O)NC(=O)C1=O` [metabolite 1, 1-methylimidazolidintrion], the lethal dose [1] is reported as 150 to 300 mg/kg.
In the case of `CN1C(=O)NC(=O)C1O` (racemic) [racemate, (±)-5-hydroxy-1-methylhydantoin, reference compound], the lethal dose [1] is reported as “not less than 2,000 mg/kg” and the “dose causing decrease of general symptoms (passivity, tactile reaction, pain sensation reaction, ipsilateral flexor reaction)” value ([2]; general symptoms observation, single oral administration to mice) is reported as 200 mg/kg.
With `CN1C(=O)NC(=O)[C@H]1O` [R-form, (R)-(+)-5-hydroxy-1-methylhydantoin] the “dose for expression of general symptoms as compared with the S-form” value ([2]; mouse, in vivo, po) was “one-fifth”.
For `CN1C(=O)NC(=O)[C@@H]1O` [S-form, (S)-(−)-5-hydroxy-1-methylhydantoin], the “increase of creatinine in blood” value ([3]; 200 mg/kg/day oral, 7th to 17th days from administration of adenine, control group 4.37±0.76 mg/dL) was 2.72 ± 0.55 mg/dL, the “suppressive action to renal insufficiency” value ([3]; adenine renal insufficiency rats, oral, compared with racemate) was “suppressive action to renal insufficiency the same as the racemate” and the “conversion to metabolites (metabolite 1 and metabolite 2) in plasma” value [4] was “rarely converted to its metabolites”. For the same compound, the “dose causing decrease of general symptoms (passivity, tactile reaction, pain sensation reaction, ipsilateral flexor reaction)” value ([2]; mouse, in vivo, po) was 500 mg/kg.

Reference: patent US20060241163A1, “Optically active (S)-hydantoin derivative” (priority 2005, published 2006)
